Experimental findings from ChEMBL document CHEMBL4425115, “Discovery and Structure-Activity Relationship (SAR) of a Series of Ethanolamine-Based Direct-Acting Agonists of Sphingosine-1-phosphate (S1P1)” (J Med Chem, 2016) are described below.

A short description of data set [1]: Clearance in mouse at 1 mg/kg, iv. The settings on record: in vivo. It counts as ADME, organism-based.
Data set [2] can be described thus: Tmax in dog at 1 mg/kg, iv or 1 mg/kg, po. The settings on record: in vivo. In kind it is ADME, organism-based, Canis lupus familiaris.
The nature of data set [3]: Volume of distribution at steady state in dog at 1 mg/kg, iv or 1 mg/kg, po. It counts as ADME, organism-based, Canis lupus familiaris. To be noted: in vivo.
Data set [4] in a line: Oral bioavailability in mouse at 1 mg/kg. In kind it is ADME, organism-based. The settings on record: in vivo.
Data set [5] can be described thus: Cmax in dog plasma at 1 mg/kg, iv or 1 mg/kg, po. It counts as ADME, organism-based, Canis lupus familiaris.
Data set [6] can be described thus: Cmax in mouse plasma at 1 mg/kg, iv or 1 mg/kg, po. In kind it is ADME, organism-based.
Data set [7] can be described thus: Metabolic stability in mouse liver microsomes assessed as compound remaining. It counts as ADME, Microsome. (Liver microsomes are vesicles of endoplasmic reticulum, rich in cytochrome P450 enzymes.)
A short description of data set [8]: Clearance in rat at 2 mg/kg, iv. It counts as ADME, organism-based. To be noted: in vivo.
A short description of data set [9]: Half life in cynomolgus monkey at 1 mg/kg, iv. In kind it is ADME, organism-based, Macaca fascicularis. The settings on record: in vivo.
Data set [10] is described as follows: Oral bioavailability in rat at 5 mg/kg. The settings on record: in vivo. In kind it is ADME, organism-based.
Data set [11] is described as follows: Clearance in cynomolgus monkey at 1 mg/kg, iv. In kind it is ADME, organism-based, Macaca fascicularis. The settings on record: in vivo.
Data set [12] can be described thus: Metabolic stability in rat liver microsomes assessed as compound remaining. It counts as ADME, Microsome.
The nature of data set [13]: Volume of distribution at steady state in cynomolgus monkey at 1 mg/kg, iv or 1 mg/kg, po. It counts as ADME, organism-based, Macaca fascicularis. The settings on record: in vivo.
The nature of data set [14]: Metabolic stability in dog liver microsomes assessed as compound remaining. It counts as ADME, Canis lupus familiaris, Microsome.
The nature of data set [15]: Clearance in dog at 1 mg/kg, iv. It counts as ADME, organism-based, Canis lupus familiaris. The settings on record: in vivo.
Data set [16] is described as follows: Tmax in cynomolgus monkey at 1 mg/kg, iv or 1 mg/kg, po. It counts as ADME, organism-based, Macaca fascicularis. The settings on record: in vivo.
Data set [17] in a line: Cmax in rat plasma at 2 mg/kg, iv or 5 mg/kg, po. It counts as ADME, organism-based.
Data set [18] is described as follows: Half life in rat at 2 mg/kg, iv. It counts as ADME, organism-based. To be noted: in vivo.
Data set [19] is described as follows: Tmax in rat at 2 mg/kg, iv or 5 mg/kg, po. The settings on record: in vivo. It counts as ADME, organism-based.
Data set [20] in a line: Cmax in cynomolgus monkey plasma at 1 mg/kg, iv or 1 mg/kg, po. It counts as ADME, organism-based, Macaca fascicularis.
The nature of data set [21]: Tmax in mouse at 1 mg/kg, iv or 1 mg/kg, po. In kind it is ADME, organism-based. To be noted: in vivo.
Data set [22] can be described thus: AUC (0 to 24 hrs) in dog at 1 mg/kg, iv or 1 mg/kg, po. In kind it is ADME, organism-based, Canis lupus familiaris. To be noted: in vivo.
Data set [23] in a line: Volume of distribution at steady state in mouse at 1 mg/kg, iv or 1 mg/kg, po. To be noted: in vivo. In kind it is ADME, organism-based.
Data set [24] in a line: AUC (0 to 24 hrs) in mouse at 1 mg/kg, iv or 1 mg/kg, po. It counts as ADME, organism-based. To be noted: in vivo.
A short description of data set [25]: Oral bioavailability in dog at 1 mg/kg. It counts as ADME, organism-based, Canis lupus familiaris. The settings on record: in vivo.
Data set [26] in a line: Metabolic stability in cynomolgus monkey liver microsomes assessed as compound remaining. It counts as ADME, Macaca fascicularis, Microsome.
Data set [27] is described as follows: Metabolic stability in human liver microsomes assessed as compound remaining. In kind it is ADME, Microsome.
Data set [28] can be described thus: AUC (0 to 24 hrs) in cynomolgus monkey at 1 mg/kg, iv or 1 mg/kg, po. In kind it is ADME, organism-based, Macaca fascicularis. The settings on record: in vivo.
Data set [29] can be described thus: Oral bioavailability in cynomolgus monkey at 1 mg/kg. It counts as ADME, organism-based, Macaca fascicularis. To be noted: in vivo.
Data set [30] is described as follows: Half life in mouse at 1 mg/kg, iv. In kind it is ADME, organism-based. The settings on record: in vivo.
Data set [31] is described as follows: Volume of distribution at steady state in rat at 2 mg/kg, iv or 5 mg/kg, po. The settings on record: in vivo. In kind it is ADME, organism-based.
Data set [32] in a line: AUC (0 to 24 hrs) in rat at 2 mg/kg, iv or 5 mg/kg, po. In kind it is ADME, organism-based. To be noted: in vivo.
A short description of data set [33]: Half life in dog at 1 mg/kg, iv. It counts as ADME, organism-based, Canis lupus familiaris. To be noted: in vivo.
Data set [34] is described as follows: Plasma concentration in Lewis rat at 3 mg/kg, po measured after 4 hrs. In kind it is ADME, organism-based.
Data set [35] in a line: Plasma concentration in Lewis rat at 3 mg/kg, po measured after 24 hrs. In kind it is ADME, organism-based.
Data set [36] in a line: Oral bioavailability in dog at 0.5 mg/kg. It counts as ADME, organism-based, Canis lupus familiaris. The settings on record: in vivo.
A short description of data set [37]: Aqueous solubility of the compound at pH 6.5. It counts as physicochemical.
The nature of data set [38]: Half life in dog at 0.5 mg/kg, iv. It counts as ADME, organism-based, Canis lupus familiaris. To be noted: in vivo.
The nature of data set [39]: Aqueous solubility of the compound at pH 1. It counts as physicochemical.
The nature of data set [40]: Lipophilicity, log D of the compound at pH 6.5. It counts as physicochemical. To be noted: buffer.
Data set [41] is described as follows: Tmax in dog at 0.5 mg/kg, iv or 0.5 mg/kg, po. In kind it is ADME, organism-based, Canis lupus familiaris. The settings on record: in vivo.
Data set [42] can be described thus: Cmax in dog plasma at 0.5 mg/kg, iv or 0.5 mg/kg, po. It counts as ADME, organism-based, Canis lupus familiaris.
Data set [43] is described as follows: Permeability of the compound at pH 7.4 by PAMPA assay. It counts as ADME. The settings on record: read-out: permeability.
A short description of data set [44]: Dissociation constant, pKa of the compound. It counts as physicochemical.
Data set [45] in a line: Volume of distribution at steady state in dog at 0.5 mg/kg, iv or 0.5 mg/kg, po. In kind it is ADME, organism-based, Canis lupus familiaris. To be noted: in vivo.
Data set [46] can be described thus: Clearance in dog at 0.5 mg/kg, iv. It counts as ADME, organism-based, Canis lupus familiaris. The settings on record: in vivo.
Data set [47] is described as follows: AUC (0 to 24 hrs) in dog at 0.5 mg/kg, iv or 0.5 mg/kg, po. It counts as ADME, organism-based, Canis lupus familiaris. To be noted: in vivo.
Another data set in a line: in vivo. To be noted: Lewis, rat, plasma, po, 30 mg/kg.
Data set [48] is described as follows: Plasma concentration in Lewis rat at 10 mg/kg, po measured after 24 hrs. It counts as ADME, organism-based.
Data set [49] in a line: Plasma concentration in Lewis rat at 10 mg/kg, po measured after 4 hrs. In kind it is ADME, organism-based.
Data set [50] in a line: Half life in human administered as single dose. It counts as ADME.

In brackets after ≈: the same amount, converted by molar mass.

As to `O=C(O)[C@H]1CCCN(C[C@@H](O)c2ccc(-c3noc(-c4onc(-c5ccccc5)c4C(F)(F)F)n3)cc2)C1`, the CL in data set [1] came to 100 mL/min/kg; in data set [8], 1700 mL/min/kg; in [11], 700 mL/min/kg; in [15], 1400 mL/min/kg. The time of peak concentration (Tmax) in [2] was found to be 0.8 h; in data set [16], 4 h; in [19] it was 3.3 h; in data set [21] it was 1 h. The Vdss in [3] turned out to be 1.4 L/kg; in [13], 1.8 L/kg; in data set [23], 0.1 L/kg; in data set [31] it was 1.2 L/kg. Also, the bioavailability in data set [4] is 66%; in data set [10], 76%; in data set [25], 74%; in [29] it was 88%. Besides, the Cmax in data set [5] was 840 nM; in [6], 45000 nM; in data set [17], 5300 nM; in data set [20] it was 1100 nM. Besides, the Stability in data set [7], in [12], in data set [14], in [26] and in [27] was greater than 98% each time. For the same compound, the t1/2 worked out at 33 h in [9], 9 h in data set [18], 15 h in data set [30] and 12 h in data set [33]. For the same compound, the AUC(0-t) was found to be 1.3 µM·h in [22], 362 µM·h in data set [24], 17 µM·h in data set [28] and 60 µM·h in data set [32].

`CCCc1c(-c2nc(-c3ccc(C(O)CN4CCC[C@H](CC(=O)O)C4)cc3)no2)noc1-c1ccccc1` (some centres not stated): the concentration at 4 h in [34] worked out at 685 nM. Also, in data set [35], the concentration at 24 h stood at 40 nM.

For the compound `O=C(O)C[C@H]1CCCN(C[C@@H](O)c2ccc(-c3noc(-c4onc(-c5ccccc5)c4C(F)(F)F)n3)cc2)C1`, the bioavailability in data set [36] worked out at 90%; in [4], 62%; in data set [10], 87%; in [29], 90%. The figures for the solubility in data set [37] and in [39] were 229 µg/mL (≈ 422 µM) and greater than 850 µg/mL, respectively. Also, the CL in data set [1] amounted to 100 mL/min/kg; in data set [8], 1000 mL/min/kg; in data set [11], 500 mL/min/kg; in data set [46], 1300 mL/min/kg. Also, the t1/2 in data set [38] amounted to 24 h; in data set [9], 27 h; in [18], 28 h; in data set [30] it was 23 h. Also, the Cmax in data set [6] worked out at 44000 nM; in [17], 4700 nM; in data set [20] it was 1500 nM; in [42], 489000 nM. In addition, the Stability in data set [7], in data set [12], in [14], in data set [26] and in data set [27] was greater than 98% in each case. In addition, the Vdss in [13] was found to be 1.1 L/kg; in data set [23] it was 0.2 L/kg; in data set [31] it was 2.2 L/kg; in data set [45] it was 1.8 L/kg. In data set [40], the logD was determined as 3.94. Besides, the time of peak concentration (Tmax) in [16] is 10 h; in data set [41], 4 h; in [19] it was 3.7 h; in data set [21], 0.5 h. The AUC(0-t) in data set [24] came to 315 µM·h; in [28] it was 26 µM·h; in data set [32] it was 66 µM·h; in [47], 7.8 µM·h. In data set [43], the Papp turned out to be 29.5 ×10⁻⁶ cm/s. The same compound yielded a pKa in [44] of 8.8.

Regarding `CCCc1c(-c2nc(-c3ccc(C(O)CNCCC(=O)O)cc3)no2)noc1-c1ccccc1` (configuration not stated), in “in vivo”, the concentration at 4 h came out at 142 nM.

`CCCc1c(-c2nc(-c3ccc(C(O)CN4CCC[C@H](C(=O)O)C4)cc3)no2)noc1-c1ccccc1` (some centres not stated): the concentration at 24 h in [48] came to 38 nM. This compound had a concentration at 4 h in [49] of 1600 nM.

`CCCCCCCCc1ccc(CCC(N)(CO)CO)cc1` [FINGOLIMOD] gave a half-life in [50] of 144 to 216 h.

Usually Tmax stands for the time at which the peak concentration occurs. The bioavailability is dose-corrected exposure relative to a reference, in per cent. Usually Cmax stands for the maximum level reached in the sampled fluid or tissue. As a reminder, the AUC(0-t) is exposure summed from dosing to a finite time, without extrapolation to infinity. Broadly, the solubility is how much of the substance goes into solution per volume. By logD is commonly meant the decadic logarithm of the distribution of all forms, ionised or not, between an organic phase and buffer at a given pH. The term pKa denotes the pH at which an ionisable group is half protonated. Usually half-life stands for the time needed for the level to fall by half in the phase considered.
